Source: patent US10316039B2, “P2X3 and/or P2X2/3 compounds and methods” (Asana Biosciences, LLC, priority 2013, dated 2019)

Molecular target: T1, P2X2/3 (Homo sapiens, UniProt P56373+Q9UBL9)
T1 sequence (Q9UBL9 1-471): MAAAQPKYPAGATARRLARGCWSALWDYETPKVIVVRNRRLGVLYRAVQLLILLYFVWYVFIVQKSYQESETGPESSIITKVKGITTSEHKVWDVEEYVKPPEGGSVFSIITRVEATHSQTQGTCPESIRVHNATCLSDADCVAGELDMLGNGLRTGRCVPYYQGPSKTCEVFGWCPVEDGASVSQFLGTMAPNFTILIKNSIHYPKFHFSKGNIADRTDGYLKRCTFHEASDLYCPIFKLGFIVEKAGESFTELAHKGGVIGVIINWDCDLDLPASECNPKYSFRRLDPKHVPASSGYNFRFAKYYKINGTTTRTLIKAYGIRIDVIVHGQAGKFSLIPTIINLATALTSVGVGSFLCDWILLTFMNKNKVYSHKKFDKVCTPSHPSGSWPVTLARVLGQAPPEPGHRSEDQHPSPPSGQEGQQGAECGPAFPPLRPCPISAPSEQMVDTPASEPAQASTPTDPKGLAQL
T1 sequence (P56373 1-397): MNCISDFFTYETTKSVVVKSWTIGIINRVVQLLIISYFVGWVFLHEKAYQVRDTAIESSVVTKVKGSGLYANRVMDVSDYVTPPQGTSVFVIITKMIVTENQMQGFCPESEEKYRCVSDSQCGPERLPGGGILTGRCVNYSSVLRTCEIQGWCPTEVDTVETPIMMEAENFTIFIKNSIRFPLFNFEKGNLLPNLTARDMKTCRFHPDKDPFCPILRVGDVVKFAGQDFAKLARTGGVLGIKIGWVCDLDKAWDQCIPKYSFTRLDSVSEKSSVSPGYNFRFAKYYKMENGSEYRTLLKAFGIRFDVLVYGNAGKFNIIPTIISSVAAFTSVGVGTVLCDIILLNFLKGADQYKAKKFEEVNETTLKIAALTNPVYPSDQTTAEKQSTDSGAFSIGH
Assay: P2X2/3 FLIPR intracellular calcium assay
Format: cell-based
Details: agonist at EC75, species (human or rat) not given
Procedure, shortened: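 Stable human P2X2/3 TRex293 cells (doxycycline-induced) loaded with Calcium 4 dye; compounds, 11-point half-log series from 2 mM top stock, preincubated 15 min at RT in HBSS/HEPES pH 7.4 with 1.8 mM CaCl2. Agonist added at EC75; fluorescence change versus no-compound wells gave IC50.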

IC50, 0.001 to 0.1 µM:
CCc1cnnn1-c1cc(C(=O)NCc2ccc(C)nc2)cn2c(-c3ccc(C)s3)cnc12 [Example 22], C[C@H](NC(=O)c1cc(-n2nncc2C(F)F)c2ncc(-c3ccc(Cl)s3)n2c1)c1nnc[nH]1 [Example 38], CC[C@H](NC(=O)c1cc(-n2nncc2C(F)F)c2ncc(-c3ccc(C)s3)n2c1)c1nnc[nH]1 [Example 52]
